Where “and” joins values, the source holds several entries; their conditions need not be identical. Identical values can stand only once. Counter-ions that a name gives are not always drawn.
Assays:
brain CYP2D [1] = conditions: 24 hr i.c.v. propranolol pretreatment, pilot microdialysis study, tramadol p.o.
brain CYP2D [2] = conditions: 24 hr i.c.v. propranolol pretreatment, pilot study
Adult male Wistar rats [3] = test: Tail-flick latency; type: in vivo, rat; conditions: for decrease in potency when moving from i.p. to p.o. route of administration: analgesia, i.p. vs p.o.; for peak analgesia: tail-flick
Adult male Wistar rats [4] = conditions: tramadol 40 mg/kg i.p.; ref Wang et al., 2015; cited from earlier work
[5] = oral tramadol; ref Nobilis et al., 2002, Ong et al., 2005; cited from earlier work
brain CYP2D [6] = conditions: seven-day subcutaneous nicotine; ref McMillan and Tyndale, 2015; cited from earlier work
brain CYP2D [7] = conditions: seven-day subcutaneous nicotine; ref McMillan and Tyndale, 2015; cited from earlier work; remark: listed apart in the source

With `CC(C)NCC(O)COc1cccc2ccccc12` (stereo not drawn) [propranolol, Propranolol hydrochloride] as the molecule, how does the “effect on brain levels of tramadol, ODSMT and NDSMT” value (brain CYP2D [1]) read?
The value was “increased”.

What about the “effect on analgesia after tramadol p.o.” value (brain CYP2D [2]) of the same molecule?
Its value is “increase in analgesia”.

With `COc1ccc2c3c1O[C@H]1[C@@H](O)C=C[C@H]4[C@@H](C2)N(C)CC[C@@]341` [codeine] as the molecule, how does the “decrease in potency when moving from i.p. to p.o. route of administration” value (Adult male Wistar rats [3]) read?
Its value is 2.5 – 10 fold.

What does the source list for `COc1cccc(C2(O)CCCCC2CN(C)C)c1` (stereo not drawn) [tramadol, Tramadol hydrochloride]?
overall analgesic response, AUC 0–60 min (published) (Adult male Wistar rats [4]): 1740 %MPE*min; peak analgesia (published) (Adult male Wistar rats [4]): approximately 52 % MPE; time to peak analgesia (published) (Adult male Wistar rats [4]): 45 min post-injection; fraction of a tramadol dose undergoing first-pass metabolism [5]: 30%; decrease in potency when moving from i.p. to p.o. route of administration (Adult male Wistar rats [3]): 2.5 – 10 fold and 2.5 fold; overall analgesic response, AUC 0–60 min (Adult male Wistar rats [3]; tramadol 40 mg/kg i.p.): 2840 %MPE*min; time to peak analgesia (Adult male Wistar rats [3]; tramadol 40 mg/kg i.p.): 50 min post-injection; peak analgesia (Adult male Wistar rats [3]; tramadol 40 mg/kg i.p.): 65 % MPE; peak analgesia (Adult male Wistar rats [3]; tramadol 100 mg/kg p.o.): 74 % MPE

With `CN1CC[C@]23c4c5ccc(O)c4O[C@H]2[C@@H](O)C=C[C@H]3[C@H]1C5` [morphine] as the molecule, how does the “decrease in potency when moving from i.p. to p.o. route of administration” value (Adult male Wistar rats [3]) read?
The value was 2.5 – 10 fold.

With `CN1CCC[C@H]1c1cccnc1` [nicotine] as the molecule, how does the “increase in codeine-induced antinociception, tail-flick reflex AUC0–30 min” value (brain CYP2D [6]) read?
Its value is 1.6 fold.

What about the “increase in codeine-induced antinociception, hot-plate test AUC” value (brain CYP2D [7]) of the same molecule?
Its value is 2.5 fold.
